Reference: patent US10464901B2, “Composition including benzene diamine derivative for preventing or treating degenerative brain diseases” (UNIST(ULSAN NATIONAL INSTITUTE OF SCIENCE AND TECHNOLOGY), priority 2017, dated 2019)

Legend:
[1] = Antioxidant effect: free organic radical-scavenging activity (ABTS) using cell lysate; format: biochemical; conditions: Table 1 summary of Example 3; symbols not defined
Protocol: It was examined whether the benzene diamine derivatives of the present disclosure have an antioxidant effect. It is known that reactive oxygen species induces oxidative stress in neuronal cells to cause neuronal cell death and causes protein misfolding to induce formation of Aβ aggregates. Therefore, compounds having antioxidant effects may be candidates for preventing or treating dementia.
Free organic radical-scavenging activity of the compound was determined according to a protocol of Cayman Chemical Company (Ann Arbor, Mich., USA) with slight modifications. For antioxidant analysis using a cell lysate, cells were seeded in a 6-well plate, and cultured until they reached 80-90% confluence. A cell lysate was prepared according to a known method, washed with a cold phosphate buffer solution (PBS; pH 7.4, GIBCO), and then harvested. Cell pellet was produced by centrifugation (2,000 g, 4° C., 10 min). This pellet was sonicated (5 sec pulse, 20 sec interval, three times) in 2 ml of cold assay buffer S13 (5 mM potassium phosphate, pH 7.4; 0.9% NaCl; 0.1% glucose) on ice. A cell lysate was centrifuged at 4° C. for 10 minutes at 5,000 g. A supernatant was removed, and left on ice until use. To the cell lysate supernatant (10 μl), the compound, metmyoglobin, ABTS (2,2′-azino-bis-3-ethylbenzothiazoline-6-sulfonic acid), and hydrogen peroxide were sequentially added. The mixture was incubated on a shaker at room temperature for 5 minutes, and absorbance at 750 nm was measured. The compound at a final concentration of 45, 90, 135, 180, 225, or 330 μM and Trolox (6-hydroxy-2,5,7,8-tetramethyl-chroman-2-carboxylic acid, dissolved in EtOH) were used. Antioxidant activity was calculated according to the measured absorbance [% inhibition=100×(A0−A)/A0, A0 represents absorbance of the supernant of the cell lysate]. Each measurement was repeated in triplicate.

[2] = test system: human neuroblastoma cell line SK-N-BE(2)-M17 (M17); assay: Cytotoxicity-inhibitory effect, MTT cell viability with Aβ with or without metals; format: cell-based; conditions: M17 cells, irrespective of Aβ isoforms and metals, FIG. 4
Protocol: It was examined whether the benzene diamine derivatives of the present disclosure have cytotoxicity-inhibitory effect. Aβ aggregation and reactive oxygen species may cause cytotoxicity in neuronal cells, resulting in neuronal cell death.
In detail, human neuroblastoma cell line SK-N-BE(2)-M17 (M17) (ATCC, Manassa, Va., USA) was cultured in a 1:1 minimum essential medium (MEM; GIBCO, Grand Island, N.Y., USA), Ham's F12K Kaighn's Modification Media (F12K; GIBCO) supplemented with 10% (v/v) fetal bovine serum (FBS; Atlanta Biologicals, Flowery Branch, Ga., USA), 100 U/mL penicillin (GIBCO), and […] streptomycin (GIBCO). M17 cells were seeded in a 96-well plate (150,000 in 100 μl per well), and treated with various concentrations of the compound (0-50 μM, 1% v/v DMSO) in the presence or absence of CuCl2 or ZnCl2 (a metal/ligand ratio of 1:1 or 1:2), and in the presence or absence of Aβ 40 (Aβ:metal:compound=10:10:20 μM). After incubation at 37° C. for 24 hours, 25 μl of MTT (3-(4,5-dimethylthiazol-2-yl)-2,5-diphenyltetrazolium bromide) (5 mg/mL in PBS, pH 7.4) (GIBCO) was added to each well, and each plate was incubated at 37° C. for 4 hours. […] Absorbance at 600 nm was measured by using a microplate reader.

Aβ40 and Aβ42 = assay: Aβ aggregation inhibition in the presence or absence of metals, overall statements (FIG. 1); format: biochemical; conditions: two kinds of Aβ (Aβ40, Aβ42)
Source text: (§1) It was examined whether the benzene diamine derivatives of the present disclosure have inhibitory effects on Aβ aggregation. Aβ has two isoforms, and therefore, effects on Aβ40 and Aβ42 were examined, respectively. When metals are involved in protein folding, the probability of abnormal folding is high. In this case, the probability of Aβ aggregate formation is further increased.
(§2) In order to perform molecular analysis of Aβ aggregation-inhibitory effects of the benzene diamine derivatives of the present disclosure, gel electrophoresis and Western blotting were performed by using anti-Aβ antibody (6E10). As a control group, compound 1
(§3) In detail, each sample (10 μl) was separated on a 10-20% Tris-tricine gel (Invitrogen, Grand Island, N.Y., USA). After separation, the proteins were transferred onto a nitrocellulose membrane and blocked with bovine serum albumin (BSA, 3% w/v, Sigma-Aldrich, St Louis, Mo., USA) in Tris-buffered saline (TBS) containing 0.1% Tween-20 (TBS-T) at room temperature for 2 hours or at 4° C. overnight. The membrane was incubated in a 2% BSA (w/v in TBS-T) solution, together with anti-Aβ antibody (6E10, 1:2,000, Covance, Princeton, N.J., USA), at room temperature for 4 hours or at 4° C. overnight. The membrane was washed with TBS-T (3×, 10 min), and a secondary mouse antibody (1:5,000 in 2% BSA w/v in TBS-T; Cayman Chemical Company, Ann Arbor, Mich., USA) was added thereto, followed by incubation at room temperature for 1 hour. Thermo Scientific SuperSignal West Pico Chemiluminescent Substrate (Thermo Scientific, Rockford, Ill., USA), Biosesang ECL Plus kit (Biosesang, Gyeonggi-do, Republic of Korea), or homemade ECL kit53 were used for visualization, and ChemiDoc MP Imaging System (Bio-Rad, Hercules, Calif., USA) was used for detection.

Zn(II)-Aβ = assay: Aβ aggregation inhibition, gel electrophoresis and Western blotting with anti-Aβ antibody (6E10); format: biochemical; conditions: Table 1 summary of Example 2; symbols not defined
Source text: as §1, §2, §3

Metal-free Aβ = assay: as above; format: biochemical; conditions: Table 1 summary of Example 2; symbols not defined
Source text: as §1, §2, §3

Cu(II)-Aβ = assay: as above; format: biochemical; conditions: Table 1 summary of Example 2; symbols not defined
Source text: as §1, §2, §3

PAMPA-BBB analysis = format: in vitro ADME
Protocol: […] PAMPA-BBB analysis was performed by using a PAMPA Explorer kit (pION, Inc. Billerica, Mass., USA) according to the manufacture's protocol with slight modifications. […] The prepared solution was put in each well of a donor plate (200 μl, repeated 12 times). A polyvinylidene fluoride (PVDF, […]) filter membrane on an acceptor plate was coated with BBB-1 lipid formulation (5 μl, pION). The acceptor plate was placed on top of the donor plate to generate a “sandwich”. Brain sink buffer (BSB, 200 μl, pION) was added to each well of the acceptor plate. The sandwich-shaped plate was incubated for 4 hours at room temperature without stirring. UV-vis spectra of the solutions in the reference, acceptor, and donor plates were measured using a microplate reader. A PAMPA Explorer software [v. 3.8 (pION)] was used to calculate the −log Pe values for compounds. CNS±designations were assigned by comparison with compounds that were identified in previous reports.

PAMPA-BBB permeability class (PAMPA-BBB analysis; 50 μM, incubation 4 hrs, U.V) | Papp at 4 h, 50 μM (PAMPA-BBB analysis; PAMPA, pH 7.4, 50 μM, incubation 4 hrs, U.V, read-out: Pe) [×10⁻⁶ cm/s] | CNS± designation (PAMPA-BBB analysis; assigned by comparison with compounds identified in previous reports) | SMILES | Reactive oxygen species (antioxidant effect) [1] | effect in cytotoxicity-inhibition test (worded result) [2] | inhibitory effect on Aβ aggregation (Aβ40 and Aβ42) | Zn(II)-Aβ (inhibitory effect on Aβ aggregation) (Zn(II)-Aβ) | Metal-free Aβ (inhibitory effect on Aβ aggregation) (Metal-free Aβ) | Cu(II)-Aβ (inhibitory effect on Aβ aggregation) (Cu(II)-Aβ)
– | – | – | c1ccc(NCc2ccccn2)cc1 [Compound 1, reference compound] | No effect | did not show excellent Aβ aggregation-inhibitory effect | did not show inhibitory effect on Aβ aggregation under any conditions | – | – | –
– | – | – | Nc1ccc(NCc2ccc(F)cn2)cc1 [Compound 3, N^1-((5-fluoropyridin-2-yl)methyl)benzene-1,4-diamine] | ◯ | – | showed inhibitory effect on both two kinds of Aβ, irrespective of the kind and presence of metals | ◯ | ◯ | ◯
– | – | – | CN(C)c1ccc(NCc2nccn2C)cc1 [Compound 4, N^1,N^1-dimethyl-N^4-((1-methyl-1H-imidazol-2-yl)methyl)benzene-1,4-diamine] | ◯ | – | showed inhibitory effect on Aβ with metals | ◯ | – | ◯
– | – | – | CN(C)c1ccc(NCCS)cc1 [Compound 5, 2-((4-(dimethylamino)phenyl)amino)ethane-1-thiol] | ◯ | – | showed inhibitory effect on both two kinds of Aβ, irrespective of the kind and presence of metals | ◯ | ◯ | ◯
High | 46.7 | (CNS+) | CC(=O)[C@H]1CC[C@H]2[C@@H]3CCC4=CC(=O)CC[C@]4(C)[C@H]3CC[C@]12C [Progesterone, reference compound] | – | – | – | – | – | –
